These results are taken from patent US10034861B2 (priority 2016, dated 2018).

pIC50: −log10 of the molar value. Like-named read-outs stand apart in the source and are kept apart here.

Format in all cases: biochemical
In test [1] the target is PDE1A (Homo sapiens (Human), UniProt P54750). The test is described as follows: biochemical. The source says: (§1) Table 1 lists the IC50 value for inhibition of PDE1 by the compounds of the invention. […] PDE1 assays are described in the Experimental Section.
PDE1A, sequence (P54750 whole entry): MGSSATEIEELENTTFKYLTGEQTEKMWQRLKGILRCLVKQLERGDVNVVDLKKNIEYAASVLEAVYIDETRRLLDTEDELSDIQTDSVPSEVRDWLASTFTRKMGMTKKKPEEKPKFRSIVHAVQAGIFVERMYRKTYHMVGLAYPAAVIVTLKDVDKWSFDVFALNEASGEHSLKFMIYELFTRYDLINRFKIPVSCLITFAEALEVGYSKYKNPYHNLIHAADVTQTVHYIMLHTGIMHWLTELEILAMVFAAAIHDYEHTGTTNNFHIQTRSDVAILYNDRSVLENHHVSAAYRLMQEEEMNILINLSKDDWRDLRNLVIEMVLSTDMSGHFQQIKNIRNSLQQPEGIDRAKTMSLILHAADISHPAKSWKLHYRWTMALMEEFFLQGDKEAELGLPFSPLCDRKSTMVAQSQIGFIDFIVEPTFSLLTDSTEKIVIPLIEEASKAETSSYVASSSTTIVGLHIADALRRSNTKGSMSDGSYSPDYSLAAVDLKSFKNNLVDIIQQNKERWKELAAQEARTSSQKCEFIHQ
Test [2] has as its target PDE1C (Homo sapiens (Human), UniProt Q14123). The experiment in a line: biochemical.
Description: as §1

The target in test [3] is PDE1B (Homo sapiens (Human), UniProt Q01064). The experiment in a line: PDE1 inhibition assay (PDE1B). The conditions noted are these: 15 nM tritium labelled cAMP, 1 hr at room temperature, SPA beads; for pIC50: read-out: PDE1B, IC50.
PDE1B, sequence (Q01064 whole entry): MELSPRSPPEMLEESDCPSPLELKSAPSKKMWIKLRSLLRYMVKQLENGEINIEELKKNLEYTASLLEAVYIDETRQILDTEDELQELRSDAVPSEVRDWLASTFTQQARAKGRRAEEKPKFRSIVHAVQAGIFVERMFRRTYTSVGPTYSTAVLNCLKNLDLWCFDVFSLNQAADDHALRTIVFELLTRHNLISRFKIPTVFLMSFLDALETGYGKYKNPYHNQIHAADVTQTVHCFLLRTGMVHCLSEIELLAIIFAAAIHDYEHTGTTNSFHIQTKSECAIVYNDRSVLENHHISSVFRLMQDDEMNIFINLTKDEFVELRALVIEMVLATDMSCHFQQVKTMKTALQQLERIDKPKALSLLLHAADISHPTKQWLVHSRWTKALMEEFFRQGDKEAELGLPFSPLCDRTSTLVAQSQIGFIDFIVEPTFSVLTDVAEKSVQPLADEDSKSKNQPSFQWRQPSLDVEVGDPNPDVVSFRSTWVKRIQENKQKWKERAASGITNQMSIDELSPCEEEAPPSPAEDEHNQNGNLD
Description: as §1

[4] abbreviates: 15 nM tritium labelled cAMP, 1 hr at room temperature, SPA beads.

PDE1C, sequence (Q14123 whole entry): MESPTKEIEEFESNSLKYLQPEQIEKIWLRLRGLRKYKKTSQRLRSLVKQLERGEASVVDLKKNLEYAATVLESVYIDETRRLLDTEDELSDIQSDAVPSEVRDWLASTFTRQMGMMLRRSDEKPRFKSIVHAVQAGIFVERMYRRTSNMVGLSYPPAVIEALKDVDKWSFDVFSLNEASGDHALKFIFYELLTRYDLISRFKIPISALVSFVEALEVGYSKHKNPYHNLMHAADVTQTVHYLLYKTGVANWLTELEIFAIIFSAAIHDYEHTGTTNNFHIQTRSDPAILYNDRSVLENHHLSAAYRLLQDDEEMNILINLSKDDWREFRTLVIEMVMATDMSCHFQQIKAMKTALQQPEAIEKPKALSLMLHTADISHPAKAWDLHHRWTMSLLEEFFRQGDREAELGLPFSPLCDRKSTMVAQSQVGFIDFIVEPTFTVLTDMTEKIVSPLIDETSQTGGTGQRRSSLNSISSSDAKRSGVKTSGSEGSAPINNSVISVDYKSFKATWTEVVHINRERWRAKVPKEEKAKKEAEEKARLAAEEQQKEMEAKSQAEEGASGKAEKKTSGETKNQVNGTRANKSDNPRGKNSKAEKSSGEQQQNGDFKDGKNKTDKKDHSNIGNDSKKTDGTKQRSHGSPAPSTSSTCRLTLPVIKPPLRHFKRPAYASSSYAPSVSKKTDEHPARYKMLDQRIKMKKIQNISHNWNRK

As for `CCOc1ncccc1-c1cc(NCc2cnn(C)c2)c2c(n1)c(C)nn2CC` [Example 48, 5-(2-ethoxypyridin-3-yl)-1-ethyl-3-methyl-N-((1-methyl-1H-pyrazol-4-yl)methyl)-1H-pyrazolo[4,3-b]pyridin-7-amine], the results for the pIC50 in test [1] (setting [4]), in test [2] (setting [4]) and in test [3] were 7.42, 6.77 and 8.20, respectively.
Taken in the same sequence, the figures for `CCOc1ncccc1-c1cc(NCc2cn(C)c(C)n2)c2c(n1)c(C)nn2C(C)C` [Example 51, N-((1,2-dimethyl-1H-imidazol-4-yl)methyl)-5-(2-ethoxypyridin-3-yl)-1-isopropyl-3-methyl-1H-pyrazolo[4,3-b]pyridin-7-amine 2,2,2-trifluoroacetate] were 7.28, 7.06 and 8.04.
In the same order, the values of `CCOc1ncccc1-c1cc(NCc2noc(C)n2)c2c(n1)c(C)nn2C(C)C` [Example 52, 5-(2-ethoxy-3-pyridyl)-1-isopropyl-3-methyl-N-[(5-methyl-1,2,4-oxadiazol-3-yl)methyl]pyrazolo[4,3-b]pyridin-7-amine] are 8.72, 8.36 and 9.77.
In the same order, the values of `CCOc1ncccc1-c1cc(NCc2ncon2)c2c(n1)c(C)nn2C(C)C` [Example 53, 5-(2-ethoxy-3-pyridyl)-1-isopropyl-3-methyl-N-(1,2,4-oxadiazol-3-ylmethyl)pyrazolo[4,3-b]pyridin-7-amine] are 8.03, 7.77 and 9.05.
For `CCOc1ncccc1-c1cc(NCc2cc(C)n(C)n2)c2c(n1)c(C)nn2C(C)C` [Example 54, N-[(1,5-dimethylpyrazol-3-yl)methyl]-5-(2-ethoxy-3-pyridyl)-1-isopropyl-3-methyl-pyrazolo[4,3-b]pyridin-7-amine], the results for the pIC50 in test [1] (setting [4]), in test [2] (setting [4]) and in test [3] were 9.41, 8.34 and 9.74, respectively.
Taken in the same sequence, the figures for `CCOc1ncccc1-c1cc(NCc2n[nH]c(C)n2)c2c(n1)c(C)nn2C(C)C` [Example 55, 5-(2-ethoxy-3-pyridyl)-1-isopropyl-3-methyl-N-[(5-methyl-1H-1,2,4-triazol-3-yl)methyl]pyrazolo[4,3-b]pyridin-7-amine] were 8.47, 8.26 and 9.29.
Taken in the same sequence, the figures for `CCOc1ncccc1-c1cc(NCc2ncn(C)n2)c2c(cnn2C(C)C)n1` [Example 56, 5-(2-ethoxy-3-pyridyl)-1-isopropyl-N-[(1-methyl-1,2,4-triazol-3-yl)methyl]pyrazolo[4,3-b]pyridin-7-amine] were 7.80, 7.35 and 9.00.
In the same order, the values of `CCOc1ncccc1-c1cc(NCc2cc[nH]n2)c2c(cnn2C(C)C)n1` [Example 57, 5-(2-ethoxy-3-pyridyl)-1-isopropyl-N-(1H-pyrazol-3-ylmethyl)pyrazolo[4,3-b]pyridin-7-amine] are 7.01, 6.77 and 8.32.
Regarding `CCOc1ncccc1-c1cc(NCc2cn(C)cn2)c2c(n1)c(C)nn2C(C)C` [Example 58, 5-(2-ethoxypyridin-3-yl)-1-isopropyl-3-methyl-N-((1-methyl-1H-imidazol-4-yl)methyl)-1H-pyrazolo[4,3-b]pyridin-7-amine 2,2,2-trifluoroacetate], the results for the pIC50 in test [1] (setting [4]), in test [2] (setting [4]) and in test [3] were 8.96, 8.68 and 9.77, respectively.
In the same order, the values of `CCOc1ncccc1-c1cc(NCc2ccn(C)n2)c2c(n1)c(C)nn2C(C)C` [Example 60, 5-(2-ethoxy-3-pyridyl)-1-isopropyl-3-methyl-N-[(1-methylpyrazol-3-yl)methyl]pyrazolo[4,3-b]pyridin-7-amine] are 8.19, 7.92 and 9.23.
`Cc1nn(C)cc1-c1cc(NCc2cnn(C)c2)c2c(n1)c(C)nn2C(C)C` [Example 61, 5-(1,3-dimethylpyrazol-4-yl)-1-isopropyl-3-methyl-N-[(1-methylpyrazol-4-yl)methyl]pyrazolo[4,3-b]pyridin-7-amine]: the pIC50 (as a rule, −log10 of the IC50, conventionally taken in molar units) was 6.26 in test [1] (setting [4]), 6.17 in test [2] (setting [4]) and 6.92 in test [3].
In the same order, the values of `COc1ncccc1-c1cc(NCc2cnn(C)c2)c2c(n1)c(C)nn2C(C)C` [Example 62, 1-isopropyl-5-(2-methoxy-3-pyridyl)-3-methyl-N-[(1-methylpyrazol-4-yl)methyl]pyrazolo[4,3-b]pyridin-7-amine] are 7.80, 7.68 and 8.62.
On to `COc1ccccc1-c1cc(NCc2cnn(C)c2)c2c(n1)c(C)nn2C(C)C` [Example 63, 1-isopropyl-5-(2-methoxyphenyl)-3-methyl-N-[(1-methylpyrazol-4-yl)methyl]pyrazolo[4,3-b]pyridin-7-amine], for which the values for the negative-log IC50 (pIC50) in test [1] (setting [4]), in test [2] (setting [4]) and in test [3] were 7.19, 7.70 and 8.03, respectively.
For the compound `Cc1nn(C(C)C)c2c(NCc3cnn(C)c3)cc(-c3ccccc3)nc12` [Example 64, 1-isopropyl-3-methyl-N-[(1-methylpyrazol-4-yl)methyl]-5-phenyl-pyrazolo[4,3-b]pyridin-7-amine], the pIC50 in test [1] (setting [4]) was 7.28; in test [2] (setting [4]), 7.33; in test [3], 7.92.
Taken in the same sequence, the figures for `Cc1nn(C(C)C)c2c(NCc3cnn(C)c3)cc(-c3cnn(C)c3C)nc12` [Example 66, 5-(1,5-dimethylpyrazol-4-yl)-1-isopropyl-3-methyl-N-[(1-methylpyrazol-4-yl)methyl]pyrazolo[4,3-b]pyridin-7-amine] were 6.68, 6.66 and 7.23.
For the compound `CCOc1ncccc1-c1cc(NCc2scnc2C)c2c(cnn2C(C)C)n1` [Example 71, 5-(2-ethoxy-3-pyridyl)-1-isopropyl-N-[(4-methylthiazol-5-yl)methyl]pyrazolo[4,3-b]pyridin-7-amine], the pIC50 in test [1] was 6.77; in test [2], 6.74. In addition, the midpoint of inhibition in test [3] (PDE1B, IC50 (nM)), the IC50, lay at 18 nM.
Regarding `CCOc1ncccc1-c1cc(NCc2cnccn2)c2c(n1)c(C)nn2C(C)C` [Example 76, 5-(2-ethoxy-3-pyridyl)-1-isopropyl-3-methyl-N-(pyrazin-2-ylmethyl)pyrazolo[4,3-b]pyridin-7-amine], the negative-log IC50 (pIC50) in test [1] (setting [4]) was 7.64; in test [2] (setting [4]), 7.49; in test [3], 8.54.
As for `CCOc1ncccc1-c1cc(NCc2cccnc2C(F)(F)F)c2c(n1)c(C)nn2C(C)C` [Example 77, 5-(2-ethoxy-3-pyridyl)-1-isopropyl-3-methyl-N-[[2-(trifluoromethyl)-3-pyridyl]methyl]pyrazolo[4,3-b]pyridin-7-amine], the pIC50 in test [1] (setting [4]) was 7.68; in test [2] (setting [4]), 7.19; in test [3], 9.66.
Taken in the same sequence, the figures for `CCOc1ncccc1-c1cc(NCc2ccn(C)c(=O)c2)c2c(n1)c(C)nn2C(C)C` [Example 78, 4-[[[5-(2-ethoxy-3-pyridyl)-1-isopropyl-3-methyl-pyrazolo[4,3-b]pyridin-7-yl]amino]methyl]-1-methyl-pyridin-2-one] were 7.57, 7.36 and 8.49.
Regarding `CCNc1ncccc1-c1cc(NCc2cnn(C)c2)c2c(n1)c(C)nn2C(C)C` [Example 79, 5-(2-(ethylamino)pyridin-3-yl)-1-isopropyl-3-methyl-N-((1-methyl-1H-pyrazol-4-yl)methyl)-1H-pyrazolo[4,3-b]pyridin-7-amine], the figures for the pIC50 in test [1] (setting [4]), in test [2] (setting [4]) and in test [3] were 6.64, 6.59 and 7.51, respectively.
Taken in the same sequence, the figures for `CCOc1ncccc1-c1cc(NCc2cc(OC)ccn2)c2c(n1)c(C)nn2C(C)C` [Example 81, 5-(2-ethoxy-3-pyridyl)-1-isopropyl-N-[(4-methoxy-2-pyridyl)methyl]-3-methyl-pyrazolo[4,3-b]pyridin-7-amine] were 9.00, 8.33 and 9.59.
Taken in the same sequence, the figures for `CCOc1ncccc1-c1cc(NCc2cncc(OC)n2)c2c(n1)c(C)nn2C(C)C` [Example 82, 5-(2-ethoxy-3-pyridyl)-1-isopropyl-N-[(6-methoxypyrazin-2-yl)methyl]-3-methyl-pyrazolo[4,3-b]pyridin-7-amine] were 7.80, 7.46 and 9.00.
Taken in the same sequence, the figures for `CCOc1ncccc1-c1cc(NCc2ncc(F)cn2)c2c(n1)c(C)nn2C(C)C` [Example 83, 5-(2-ethoxy-3-pyridyl)-N-[(5-fluoropyrimidin-2-yl)methyl]-1-isopropyl-3-methyl-pyrazolo[4,3-b]pyridin-7-amine] were 7.77, 7.42 and 8.92.
For `CCOc1ncccc1-c1cc(NCc2cccnc2C)c2c(n1)c(C)nn2C(C)C` [Example 84, 5-(2-ethoxy-3-pyridyl)-1-isopropyl-3-methyl-N-[(2-methyl-3-pyridyl)methyl]pyrazolo[4,3-b]pyridin-7-amine], the pIC50 was 7.72 in test [1] (setting [4]), 7.64 in test [2] (setting [4]) and 8.74 in test [3].
Turning to `CCOc1ncccc1-c1cc(NCc2cccnc2F)c2c(n1)c(C)nn2C(C)C` [Example 85, 5-(2-ethoxy-3-pyridyl)-N-[(2-fluoro-3-pyridyl)methyl]-1-isopropyl-3-methyl-pyrazolo[4,3-b]pyridin-7-amine], the pIC50 is 8.08 in test [1] (setting [4]), 7.57 in test [2] (setting [4]) and 9.66 in test [3].
Taken in the same sequence, the figures for `CCOc1ncccc1-c1cc(NCc2cccnc2OC)c2c(n1)c(C)nn2C(C)C` [Example 86, 5-(2-ethoxy-3-pyridyl)-1-isopropyl-N-[(2-methoxy-3-pyridyl)methyl]-3-methyl-pyrazolo[4,3-b]pyridin-7-amine] were 7.70, 7.17 and 9.44.
